Residues, ends and D or L forms follow the SMILES beside them.
System: drug-resistant Mycobacterium tuberculosis
Settings: 5 micrograms per ml

## CC(C)[C@H](NC(=O)[C@H](CC(=O)O)NC(=O)[C@H](CCCCN)NC(=O)[C@@H](N)CCCN=C(N)N)C(=O)N[C@@H](Cc1ccc(O)cc1)C(=O)O [Thymopentin, Arg-Lys-Asp-Val-Tyr-OH] (H-RKDVY-OH)
  % inhibition: 0.0%

— patent publication US20100204156A1, “USE OF THYMOPENTIN AS A THERAPEUTIC AGENT” (priority 2007, published 2010)
